Assay results from patent US20070265289A1, “2-Aminopyrimidine Derivative” (priority 2004, published 2007).

Tests used:
rat IKK2 = biological target: T1, rat IKK2 (Rattus norvegicus, UniProt Q9QY78); assay: Evaluation of rat IKK2 enzyme inhibition; assay type: biochemical; conditions: 0.5 μM ATP, probit analysis; read-out: IC50, rat IKK2 enzyme activity-inhibitory effect
T1 construct: ORF of rat IKK2 (GenBank AF115282) was cloned from a rat pancreas cDNA library; FLAG; made in house; host or cells: Sf9 insect cells
T1 sequence (Q9QY78 1-757): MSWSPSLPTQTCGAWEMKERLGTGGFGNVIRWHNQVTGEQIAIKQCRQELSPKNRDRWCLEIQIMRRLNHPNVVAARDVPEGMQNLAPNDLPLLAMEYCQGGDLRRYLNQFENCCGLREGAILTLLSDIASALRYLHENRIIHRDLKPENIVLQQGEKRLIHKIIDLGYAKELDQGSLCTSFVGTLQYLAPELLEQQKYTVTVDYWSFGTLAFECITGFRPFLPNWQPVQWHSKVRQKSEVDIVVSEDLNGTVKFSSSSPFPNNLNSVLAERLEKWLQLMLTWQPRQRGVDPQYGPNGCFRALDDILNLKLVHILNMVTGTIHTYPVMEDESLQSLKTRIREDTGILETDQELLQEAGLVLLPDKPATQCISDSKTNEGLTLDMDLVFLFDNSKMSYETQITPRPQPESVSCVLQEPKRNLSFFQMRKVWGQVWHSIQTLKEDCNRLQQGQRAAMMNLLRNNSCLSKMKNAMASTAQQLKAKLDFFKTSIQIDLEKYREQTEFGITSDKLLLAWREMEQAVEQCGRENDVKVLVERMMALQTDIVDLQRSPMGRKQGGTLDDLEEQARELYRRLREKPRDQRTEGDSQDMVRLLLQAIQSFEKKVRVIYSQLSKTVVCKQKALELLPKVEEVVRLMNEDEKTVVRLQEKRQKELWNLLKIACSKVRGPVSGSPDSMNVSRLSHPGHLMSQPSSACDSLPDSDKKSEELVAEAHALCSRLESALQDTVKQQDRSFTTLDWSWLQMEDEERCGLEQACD
Procedure: (1) Evaluation of Rat IKK2 Enzyme Inhibition:
ORF of rat IKK2 (GenBank AF115282) was cloned from a rat pancreas cDNA library, and with a FLAG-tag attached thereto, it was expressed in an Sf9 cell line. The cells were dissolved in a cytolytic solution (50 mM Tris-HCl pH 7.5, 0.15M NaCl, 1% NP-40, 10% glycerol, 1 mM EDTA, 1 mM EGTA pH 7.5, 1 mM Na3VO4, 5 mM p-nitrophenylphosphate, 10 mM O-glycerophosphate, 1 mM DTT, 1 mM PMSF, 10 μg/ml leupeptin, 10 μg/ml aprotinin (by Sigma)) to prepare a large amount of an cell extract, which was then purified on an anti-FLAG M2 antibody (by Sigma). This experimental operation was carried out in accordance with gene manipulation experiment manuals such as known methods (Sambrook, J. et al, Molecular Cloning-A Laboratory Manual, Cold Spring Harbor laboratory, NY, 1989) or the instructions attached to the reagents. The purified rat IKK2 was stored in an enzyme preservative (20 mM Tris-HCl pH 7.5, 10% glycerol, 12.5 mM β-glycerophosphate, 0.5 mM EDTA, 0.5 mM EGTA, 0.05% Brij35, 1 mM DTT, 1 mM PMSF (by Sigma)) at −80° C.
The purified rat IKK2, 1× enzymatic reaction buffer (20 mM Tris-HCl pH 7.5, 12.5 mM O-glycerophosphate, 20 mM MgCl2, 0.1 mM DTT), 0.01% BSA (by Sigma), 0.5 μM ATP, 0.2 μM biotinated substrate peptide (18th to 49th amino acid residues of rat I-kappa B alpha (GenBank Q63746)) and a test compound dissolved in DMSO were added to a 384-well plate (catalogue No. 3677, by Corning) to be 10 μl in total therein, and left at room temperature for 90 minutes. Next, […] of a reaction stopper (100 mM Hepse pH 8, 0.01% BSA, 0.8 M KF, 50 mM EDTA pH 8, 1% Triton X-100, europium cryptate-labeled anti-phosphorylation I-kappa B alpha-antibody (by Santa Cru), streptoavidin-labeled XL665 (by Nihon Schering)) was added thereto, kept warmed for 30 minutes, and then assayed with DISCOVERY (by Perkin-Elmer). The rat IKK2 enzyme activity-inhibitory effect of the tested compound was obtained according to the following formula. Every dose was tested independently three times. Inhibition (%) by Test Compound=((mean value with rat IKK2 but not with test compound)−(mean value with both test compound and rat IKK2))/((mean value with rat IKK2 but not with test compound)−(mean value not with rat IKK2))×100.

[1] = test system: collagen-induced rheumatoid arthritis; assay: Rat collagen-induced rheumatoid arthritis model; assay type: in vivo; conditions: oral administration at a dose of 30 mg/kg, 14 days
Procedure: (4) Collagen-Induced Rheumatoid Arthritis Model:
The effect to rat collagen-induced rheumatoid arthritis was evaluated according to a partial modification of the method described in The Japanese Journal of Pharmacology, 1997 August; 74(4): 313-22.
10 mL of a 1 mg/mL solution of bovine-derived type 2 collagen (by Cosmobio) diluted three-fold with acetic acid was mixed with adjuvant incomplete Freund (by Difco) in 1/1, and emulsified to give an emulsion for sensitization. The tail root of each rat in a control group and in a test compound administration group was disinfected with ethanol, and collagen-sensitized through intradermal injection of 0.4 mL of the emulsion containing […] of collagen thereinto to thereby induce rheumatoid arthritis. The rats in the non-sensitized group were not treated for collagen sensitization. To the rats of the control group, 10 mL/kg of 0.5% methyl cellulose was orally administered. To the rats of the test compound administration group, a compound of the invention was orally administered. One week after the sensitization, the administration continued for 14 days. The degree of inflammation was judged by measuring the rheumatoid arthritis scores of the four limbs of each rat (scoring). Briefly, the symptom of each articulation was visually grouped into the following four ranks (0: normal, 1: flare or light swelling, 2: middle swelling, 3: heavy swelling or joint ankylosis); and the total of the numerical data of the four limbs is referred to as the rheumatoid arthritis score. The scoring was carried out every other day after the development of rheumatoid arthritis. The cumulative rheumatoid arthritis score was calculated by totaling the rheumatoid arthritis scores on every scoring date of every individual. Relative to the mean cumulative rheumatoid arthritis score of rats of the control group, the inhibition by the those of the test compound administration group was calculated, and the mean value of the data was shown.

TNF-α production = assay: Mouse LPS-induced TNF-α production model; assay type: in vivo, Balb/c female mice; conditions: Mus musculus, po, 1.5 h, oral administration of 30 mg/kg, 60 minutes before LPS, blood 90 minutes after LPS; read-out: inhibition of plasma TNF-α
Procedure: (2) Mouse LPS-Induced TNF-α Production Model:
6 weeks old Balb/c female mice were placed into two groups, a control group and a test compound administration group. A solution containing 10 μg/mouse of LPS in 0.9% physiological salt was administered by intraperitoneal injection into the control mice. 60 minutes before the LPS administration, a compound of the invention was orally administered to the mice of the test compound administration group. Under anesthesia with diethyl ether, blood was collected from the posterior venous cavity of the mice of both the test compound administration group and the control group at 90 minutes after the LPS administration, and treated with heparin, and the plasma was separated from it through centrifugation at 10000 rpm at 4° C. for 10 minutes, and then diluted two-fold with PBS (pH 7.4).
The TNF-α concentration in the sample was determined with an ELISA kit (by Pharmingen, San Diego, Calif.). The inhibition by the mice of the test compound administration group relative to the mean inhibition by those of the control group was calculated as a mean value thereof.
The inhibition in oral administration of 30 mg/kg of compound (I) is shown below.

Row | IC50 (rat IKK2) [nM] | Compound | inhibition of cumulative rheumatoid arthritis score [1] [%] | inhibition in vivo at 30 mg/kg (TNF-α production) [%]
1 | ≤ 500 | Nc1nc(-c2c(O)cccc2OCC2CC2)cc(C2CCCNC2)n1 (stereo not shown) [Example 37] | ~100 | –
2 | ≤ 500 | Nc1nc(-c2c(O)cccc2OCC2CCC2)cc(C2CCCNC2)n1 (stereo not shown) [Example 85] | ~100 | 85
3 | ≤ 500 | Nc1nc(-c2c(O)cccc2OCC2CCCC2)cc(C2CCCNC2)n1 (stereo not shown) [Example 92] | ~100 | –
